24 molecules from US20230399312A1, “SUBSTITUTED PYRIMIDINES AND METHODS OF USE” (THERAVANCE BIOPHARMA R&D IP, LLC, priority 2020, published 2023) can be followed below.

Experiment [1] concerns TGF-β-stimulated SMAD3 phosphorylation in BEAS-2B cells. Description: Cellular ALK5 potency assay, inhibition of TGF-β stimulated pSMAD3 formation in BEAS-2B cells. Format: cell-based. The settings on record: Homo sapiens, pSMAD3, TGF-β 10 ng/mL, read-out: BEAS2B pIC50 (converted). The procedure, abridged:
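Human lung epithelial BEAS-2B cells were pre-treated with compound for 1 h at 37 °C, then stimulated with TGF-β (final 10 ng/mL) for 30 min before lysis. pSMAD3 was quantified by AlphaLISA and pIC50 derived from dose-dependent signal change versus TGF-β-stimulated untreated cells.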

For experiment [2], the target named is T1, recombinant human ALK5 (TGF-βR1) protein (Homo sapiens, UniProt P36897).
T1 construct: purchased Life Technologies PR9075A
T1 sequence (P36897 34-503): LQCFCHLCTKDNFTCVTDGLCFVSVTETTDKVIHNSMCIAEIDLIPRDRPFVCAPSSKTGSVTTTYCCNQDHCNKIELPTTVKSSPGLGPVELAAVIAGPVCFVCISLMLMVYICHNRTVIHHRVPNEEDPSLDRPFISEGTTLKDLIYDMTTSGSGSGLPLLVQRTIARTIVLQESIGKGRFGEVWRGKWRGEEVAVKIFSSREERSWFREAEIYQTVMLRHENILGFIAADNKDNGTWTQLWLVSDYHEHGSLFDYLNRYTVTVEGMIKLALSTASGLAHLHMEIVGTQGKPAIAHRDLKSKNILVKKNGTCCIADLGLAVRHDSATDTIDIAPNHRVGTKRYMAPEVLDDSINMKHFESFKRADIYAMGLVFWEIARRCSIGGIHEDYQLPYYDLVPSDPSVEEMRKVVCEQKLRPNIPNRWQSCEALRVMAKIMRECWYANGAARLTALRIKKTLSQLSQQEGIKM
Description: Biochemical ALK5 (TGF-βR1) assay to measure pKi (LANCE Ultra ULight kinase assay). As to conditions: apparent pKi, converted from pIC50 by Cheng-Prusoff. The procedure, abridged:
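Europium TR-FRET kinase assay: the enzyme is exposed to compound for 60 min at room temperature, and reaction with ATP runs 60 min at 37 °C. Percent inhibition relative to DMSO and SD-208 controls gives pIC50, which is converted to pKi.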

Molecules are shown by their SMILES.

For `Cc1cccc(-c2nccc(Nc3ccnc(Nc4ccc(S(N)(=O)=O)cc4)n3)n2)n1` [Compound 108, 4-((4-((2-(6-methylpyridin-2-yl)pyrimidin-4-yl)amino)pyrimidin-2-yl)amino)benzenesulfonamide], in experiment [1], the IC50 was 25.1 to 158 nM. Moreover, the Ki in experiment [2] is 0.0398 to 0.316 nM.
Turning to `Cc1cccc(-c2nccc(Nc3ccnc(Nc4ccc5c(c4)CCN(C(C)C)CC5)n3)n2)n1` [Compound 223, N2-(3-isopropyl-2,3,4,5-tetrahydro-1H-benzo[d]azepin-7-yl)-N4-(2-(6-methylpyridin-2-yl)pyrimidin-4-yl)pyrimidine-2,4-diamine], in experiment [1], the IC50 was 25.1 to 158 nM. Besides, the Ki in experiment [2] is not above 0.0316 nM.
In the same order, the values of `Cc1cccc(-c2nccc(Nc3ccnc(Nc4ccc(CC5CCNC5)cc4)n3)n2)n1` (stereo not drawn) [Compound 489, N4-(2-(6-methylpyridin-2-yl)pyrimidin-4-yl)-N2-(4-(pyrrolidin-3-ylmethyl)phenyl)pyrimidine-2,4-diamine] are 25.1 to 158 nM and 0.0398 to 0.316 nM.
The like results for `Cc1cccc(-c2nccc(Nc3ccnc(Nc4ccc(N5CCN(C6CCNC6)CC5)cc4)n3)n2)n1` (stereo not drawn) [Compound 429, N4-[2-(6-methyl-2-pyridyl)pyrimidin-4-yl]-N2-[4-(4-pyrrolidin-3-ylpiperazin-1-yl)phenyl]pyrimidine-2,4-diamine] were, in that order, 200 to 1260 nM and 0.0398 to 0.316 nM.
Regarding `Cc1cccc(-c2nccc(Nc3ccnc(Nc4ccc(N5CCN(C(C)C)CC5)cc4)n3)n2)n1` [Compound 189, N2-[4-(4-isopropylpiperazin-1-yl)phenyl]-N4-[2-(6-methyl-2-pyridyl)pyrimidin-4-yl]pyrimidine-2,4-diamine], the IC50 in experiment [1] is 25.1 to 158 nM. In experiment [2], the Ki was not above 0.0316 nM.
In the same order, the values of `Cc1cccc(-c2nccc(Nc3ccnc(Nc4ccc(CCN(C)C)cc4)n3)n2)n1` [Compound 253, N2-[4-[2-(dimethylamino)ethyl]phenyl]-N4-[2-(6-methyl-2-pyridyl)pyrimidin-4-yl]pyrimidine-2,4-diamine] are 25.1 to 158 nM and 0.0398 to 0.316 nM.
In the same order, the values of `Cc1cccc(-c2nccc(Nc3ccnc(Nc4ccc(N5CCN(CC6CCNC6)CC5)cc4)n3)n2)n1` (stereo not drawn) [Compound 102, N4-[2-(6-methyl-2-pyridyl)pyrimidin-4-yl]-N2-[4-[4-(pyrrolidin-3-ylmethyl)piperazin-1-yl]phenyl]pyrimidine-2,4-diamine] are 25.1 to 158 nM and 0.0398 to 0.316 nM.
In the case of `Cc1cccc(-c2nccc(Nc3ccnc(Nc4ccc(C5=CCC(NC(C)C)CC5)cc4)n3)n2)n1` (stereo not drawn) [Compound 358, N2-[4-[4-(isopropylamino)cyclohexen-1-yl]phenyl]-N4-[2-(6-methyl-2-pyridyl)pyrimidin-4-yl]pyrimidine-2,4-diamine], the IC50 in experiment [1] is 200 to 1260 nM. The Ki in experiment [2] is 0.0398 to 0.316 nM.
The like results for `Cc1cccc(-c2nccc(Nc3ccnc(Nc4cccc(N)c4)n3)n2)n1` [Compound 315, N2-(3-aminophenyl)-N4-[2-(6-methyl-2-pyridyl)pyrimidin-4-yl]pyrimidine-2,4-diamine] were, in that order, not above 20 nM and 0.0398 to 0.316 nM.
Regarding `Cc1cccc(-c2nccc(Nc3ccnc(Nc4ccc(N5CCNCC5)c(C)c4)n3)n2)n1` [Compound 515, N2-(3-methyl-4-piperazin-1-yl-phenyl)-N4-[2-(6-methyl-2-pyridyl)pyrimidin-4-yl]pyrimidine-2,4-diamine], the IC50 in experiment [1] was 25.1 to 158 nM. In addition, the Ki in experiment [2] was 0.0398 to 0.316 nM.
In the same order, the values of `Cc1cccc(-c2nccc(Nc3ccnc(Nc4ccc(N5CCN[C@@H](C(=O)O)C5)cc4)n3)n2)n1` [Compound 422, (2R)-4-[4-[[4-[[2-(6-methyl-2-pyridyl)pyrimidin-4-yl]amino]pyrimidin-2-yl]amino]phenyl]piperazine-2-carboxylic acid] are 200 to 1260 nM and 0.0398 to 0.316 nM.
In the same order, the values of `Cc1cccc(-c2nccc(Nc3ccnc(Nc4ccc(CN5[C@H](C)CNC[C@@H]5C)cc4)n3)n2)n1` [Compound 470, N2-[4-[[(2R,6S)-2,6-dimethylpiperazin-1-yl]methyl]phenyl]-N4-[2-(6-methyl-2-pyridyl)pyrimidin-4-yl]pyrimidine-2,4-diamine] are 25.1 to 158 nM and 0.0398 to 0.316 nM.
As to `Cc1cccc(-c2nccc(Nc3ccnc(Nc4ccc(N5CCC(CNCc6ccccc6)CC5)cc4)n3)n2)n1` [Compound 471, N2-[4-[4-[(benzylamino)methyl]-1-piperidyl]phenyl]-N4-[2-(6-methyl-2-pyridyl)pyrimidin-4-yl]pyrimidine-2,4-diamine], the IC50 in experiment [1] is 200 to 1260 nM. The Ki in experiment [2] was 0.398 to 3.16 nM.
In the same order, the values of `Cc1cccc(-c2nccc(Nc3ccnc(Nc4ccc(N5CCN[C@H](CO)C5)cc4)n3)n2)n1` [Compound 46, [(2S)-4-[4-[[4-[[2-(6-methyl-2-pyridyl)pyrimidin-4-yl]amino]pyrimidin-2-yl]amino]phenyl]piperazin-2-yl]methanol] are 25.1 to 158 nM and not above 0.0316 nM.
For the molecule `Cc1cccc(-c2nccc(Nc3ccnc(Nc4cncc(C(=O)OC[C@H]5CCCCN5)c4)n3)n2)n1` [Compound 641, [(2R)-2-piperidyl]methyl 5-[[4-[[2-(6-methyl-2-pyridyl)pyrimidin-4-yl]amino]pyrimidin-2-yl]amino]pyridine-3-carboxylate], the IC50 in experiment [1] is 25.1 to 158 nM. Further, the Ki in experiment [2] was 0.398 to 3.16 nM.
In the same order, the values of `COC(=O)C1CCN(c2ccc(Nc3nccc(Nc4ccnc(-c5cccc(C)n5)n4)n3)cc2)CC1` [Compound 60, methyl 1-[4-[[4-[[2-(6-methyl-2-pyridyl)pyrimidin-4-yl]amino]pyrimidin-2-yl]amino]phenyl]piperidine-4-carboxylate] are 25.1 to 158 nM and 0.0398 to 0.316 nM.
The like results for `Cc1cccc(-c2nccc(Nc3ccnc(Nc4ccc(CN5CCC(C(=O)O[C@@H]6CCN(C)C6)CC5)cc4)n3)n2)n1` [Compound 414, (R)-1-methylpyrrolidin-3-yl 1-(4-((4-((2-(6-methylpyridin-2-yl)pyrimidin-4-yl)amino)pyrimidin-2-yl)amino)benzyl)piperidine-4-carboxylate] were, in that order, 25.1 to 158 nM and 0.0398 to 0.316 nM.
In the same order, the values of `Cc1cccc(-c2nccc(Nc3ccnc(Nc4cc(N)c5c(c4)OCCO5)n3)n2)n1` [Compound 191, N2-(5-amino-2,3-dihydro-1,4-benzodioxin-7-yl)-N4-[2-(6-methyl-2-pyridyl)pyrimidin-4-yl]pyrimidine-2,4-diamine] are 25.1 to 158 nM and 0.398 to 3.16 nM.
Turning to `Cc1cccc(-c2nccc(Nc3ccnc(Nc4ccc(C(=O)O[C@H]5CCNC5)nc4)n3)n2)n1` [Compound 547, [(3S)-pyrrolidin-3-yl] 5-[[4-[[2-(6-methyl-2-pyridyl)pyrimidin-4-yl]amino]pyrimidin-2-yl]amino]pyridine-2-carboxylate], the IC50 in experiment [1] is 25.1 to 158 nM. Moreover, the Ki in experiment [2] is 0.0398 to 0.316 nM.
The like results for `COc1cc(Nc2nccc(Nc3ccnc(-c4cccc(C)n4)n3)n2)ccc1N1CCOCC1` [Compound 79, N2-(3-methoxy-4-morpholino-phenyl)-N4-[2-(6-methyl-2-pyridyl)pyrimidin-4-yl]pyrimidine-2,4-diamine] were, in that order, 25.1 to 158 nM and 0.0398 to 0.316 nM.
In the same order, the values of `Cc1cccc(-c2nc(Nc3ccnc(Nc4ccc(NC(=O)[C@H]5C[C@@H](N)C5)cc4)n3)c3cccn3n2)n1` [Compound 1030, 3-amino-N-[4-[[4-[[2-(6-methyl-2-pyridyl)pyrrolo[2,1-f][1,2,4]triazin-4-yl]amino]pyrimidin-2-yl]amino]phenyl] cyclobutanecarboxamide] are 25.1 to 158 nM and 0.0398 to 0.316 nM.
In the same order, the values of `COC(=O)C1CN(Cc2ccc(Nc3nccc(Nc4ccnc(-c5cccc(C)n5)n4)n3)cc2)CCN1C(C)C` (stereo not drawn) [Compound 481, methyl 1-isopropyl-4-[[4-[[4-[[2-(6-methyl-2-pyridyl)pyrimidin-4-yl]amino]pyrimidin-2-yl]amino]phenyl]methyl] piperazine-2-carboxylate] are 25.1 to 158 nM and 0.398 to 3.16 nM.
As to `Cc1cccc(-c2nccc(Nc3ccnc(Nc4nc(C(=O)OCC5CNC5)cs4)n3)n2)n1` [Compound 256, azetidin-3-ylmethyl 2-[[4-[[2-(6-methyl-2-pyridyl)pyrimidin-4-yl]amino]pyrimidin-2-yl]amino]thiazole-4-carboxylate], in experiment [1], the IC50 is 200 to 1260 nM. Further, the Ki in experiment [2] was 0.398 to 3.16 nM.
In the case of `Cc1ccc(O)cc1-c1nccc(Nc2ccnc(Nc3ccc(N4CCC(N(C)C)CC4)cc3)n2)n1` [Compound 16, 3-[4-[[2-[4-[4-(dimethylamino)-1-piperidyl]anilino]pyrimidin-4-yl]amino]pyrimidin-2-yl]-4-methyl-phenol], the IC50 in experiment [1] is 25.1 to 158 nM. In addition, the Ki in experiment [2] was 0.398 to 3.16 nM.
